Where a name gives a salt, the structure may show the parent alone.
Columns and labels:
[1] = target: ROCK1 (Homo sapiens (Human), UniProt Q13464); experiment: ROCK assay (LABCHIP peptide phosphorylation), ROCK1; format: biochemical; details: 5 μM ATP, 1.5 μM peptide substrate; read-out: ROCK1 IC50
[2] = target: ROCK2 (Homo sapiens (Human), UniProt O75116); experiment: ROCK assay (LABCHIP peptide phosphorylation), ROCK2; format: biochemical; details: 5 μM ATP, 1.5 μM peptide substrate
Chain of ROCK2 (O75116 whole entry, species assumed): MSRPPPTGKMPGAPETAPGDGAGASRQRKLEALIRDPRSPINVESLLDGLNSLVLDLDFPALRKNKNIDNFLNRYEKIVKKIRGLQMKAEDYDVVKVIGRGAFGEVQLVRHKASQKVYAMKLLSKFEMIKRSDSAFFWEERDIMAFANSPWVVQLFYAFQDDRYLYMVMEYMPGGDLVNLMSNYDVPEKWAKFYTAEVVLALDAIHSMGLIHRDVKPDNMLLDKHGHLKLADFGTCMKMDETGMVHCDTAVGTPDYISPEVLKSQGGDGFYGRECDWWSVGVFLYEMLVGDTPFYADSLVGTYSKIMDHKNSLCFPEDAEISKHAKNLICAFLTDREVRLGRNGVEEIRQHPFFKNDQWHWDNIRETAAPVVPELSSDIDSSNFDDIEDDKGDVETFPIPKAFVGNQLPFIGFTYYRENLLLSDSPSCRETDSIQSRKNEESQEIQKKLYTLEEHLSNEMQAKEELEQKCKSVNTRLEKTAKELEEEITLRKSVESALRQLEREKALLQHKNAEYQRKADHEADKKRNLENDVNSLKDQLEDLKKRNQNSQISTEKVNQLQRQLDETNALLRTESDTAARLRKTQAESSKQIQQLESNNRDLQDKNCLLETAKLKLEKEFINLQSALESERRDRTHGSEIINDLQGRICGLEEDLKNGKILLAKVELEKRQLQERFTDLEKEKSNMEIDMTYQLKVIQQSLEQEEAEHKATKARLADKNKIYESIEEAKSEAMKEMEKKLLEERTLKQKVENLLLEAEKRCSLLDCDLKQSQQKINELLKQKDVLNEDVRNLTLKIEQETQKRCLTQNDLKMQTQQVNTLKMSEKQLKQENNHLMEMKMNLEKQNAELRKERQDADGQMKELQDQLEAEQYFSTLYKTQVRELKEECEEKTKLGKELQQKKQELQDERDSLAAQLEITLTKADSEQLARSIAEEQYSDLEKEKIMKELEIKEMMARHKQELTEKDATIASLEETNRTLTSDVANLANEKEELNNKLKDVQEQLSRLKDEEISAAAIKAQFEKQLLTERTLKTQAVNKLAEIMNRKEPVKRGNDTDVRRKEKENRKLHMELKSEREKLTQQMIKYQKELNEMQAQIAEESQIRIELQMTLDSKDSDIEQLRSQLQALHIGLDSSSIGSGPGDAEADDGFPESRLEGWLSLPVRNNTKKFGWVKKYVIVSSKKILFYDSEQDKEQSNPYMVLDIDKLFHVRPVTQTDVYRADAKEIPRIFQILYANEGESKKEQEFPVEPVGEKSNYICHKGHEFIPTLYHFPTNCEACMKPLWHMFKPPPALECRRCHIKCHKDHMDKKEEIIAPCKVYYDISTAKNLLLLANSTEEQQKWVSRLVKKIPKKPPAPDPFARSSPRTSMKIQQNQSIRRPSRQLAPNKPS

Chain of ROCK1 (Q13464 whole entry, species assumed): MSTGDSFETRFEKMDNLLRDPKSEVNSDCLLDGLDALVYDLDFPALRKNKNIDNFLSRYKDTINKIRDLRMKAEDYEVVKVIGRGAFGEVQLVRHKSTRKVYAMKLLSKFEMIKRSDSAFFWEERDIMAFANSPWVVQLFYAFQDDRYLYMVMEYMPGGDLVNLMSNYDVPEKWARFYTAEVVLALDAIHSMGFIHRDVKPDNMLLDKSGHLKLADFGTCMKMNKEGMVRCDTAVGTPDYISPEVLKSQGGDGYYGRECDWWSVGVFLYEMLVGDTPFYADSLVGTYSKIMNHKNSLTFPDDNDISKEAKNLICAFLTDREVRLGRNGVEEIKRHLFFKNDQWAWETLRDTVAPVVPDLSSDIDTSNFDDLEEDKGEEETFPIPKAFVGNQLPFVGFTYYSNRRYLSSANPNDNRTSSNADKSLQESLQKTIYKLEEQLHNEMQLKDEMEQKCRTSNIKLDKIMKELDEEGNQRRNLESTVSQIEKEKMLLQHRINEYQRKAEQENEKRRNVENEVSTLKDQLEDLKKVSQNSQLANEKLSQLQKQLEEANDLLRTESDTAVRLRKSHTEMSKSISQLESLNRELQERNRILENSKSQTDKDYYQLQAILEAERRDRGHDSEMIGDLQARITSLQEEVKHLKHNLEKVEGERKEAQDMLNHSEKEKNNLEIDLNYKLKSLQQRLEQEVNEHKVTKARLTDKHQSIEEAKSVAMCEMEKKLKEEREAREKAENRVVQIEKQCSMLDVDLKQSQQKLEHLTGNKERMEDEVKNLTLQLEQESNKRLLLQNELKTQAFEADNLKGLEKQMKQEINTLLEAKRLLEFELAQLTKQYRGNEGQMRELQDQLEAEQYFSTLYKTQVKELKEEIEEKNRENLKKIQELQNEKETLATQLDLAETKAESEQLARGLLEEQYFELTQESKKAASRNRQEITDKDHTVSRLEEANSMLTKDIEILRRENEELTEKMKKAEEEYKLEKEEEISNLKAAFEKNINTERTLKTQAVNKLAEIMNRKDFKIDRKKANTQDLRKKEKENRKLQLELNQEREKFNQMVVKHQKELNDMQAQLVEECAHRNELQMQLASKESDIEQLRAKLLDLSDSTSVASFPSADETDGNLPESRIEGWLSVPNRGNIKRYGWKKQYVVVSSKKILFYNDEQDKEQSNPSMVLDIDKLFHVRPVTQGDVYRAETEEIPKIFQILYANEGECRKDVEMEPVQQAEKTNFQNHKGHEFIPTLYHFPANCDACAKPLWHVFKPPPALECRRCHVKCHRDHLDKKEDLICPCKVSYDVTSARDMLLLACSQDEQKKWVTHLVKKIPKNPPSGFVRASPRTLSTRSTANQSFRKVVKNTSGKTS

Row | IC50 [1] [nM] | IC50 [2] [nM] | Compound
1 | 1000 to 50000 | 1000 to 50000 | 2-[4-(4-oxo-3,4- dihydrophthalazin-1- yl)phenyl]-N-[(1S,2R)- 2-phenylcyclopropyl] acetamide [Example 18]
2 | 101 to 1000 | 0.1 to 100 | O=C(Cc1ccc(-c2n[nH]c(=O)c3ccccc23)cc1)N1Cc2ccc(F)cc2C1 [Example 2, 4-(4-(2-(5-Fluoroisoindolin-2-yl)-2-oxoethyl)phenyl)phthalazin-1 (2H)-one]
3 | – | 101 to 1000 | O=C(Cc1ccc(-c2n[nH]c(=O)c3ccccc23)cc1)N1CCc2ccccc2C1 [Example 4, 4-{4-[2-oxo-2-(1,2,3,4-tetrahydroisoquinolin-2-yl)ethyl]phenyl}-1,2-dihydrophthalazin-1-one]
4 | – | 101 to 1000 | O=C(Cc1ccc(-c2n[nH]c(=O)c3ccccc23)cc1)Nc1cccnc1 [Example 5, 2-[4-(4-oxo-3,4-dihydrophthalazin-1-yl)phenyl]-N-(pyridin-3-yl)acetamide]
5 | – | 101 to 1000 | O=C(Cc1ccc(-c2n[nH]c(=O)c3ccccc23)cc1)NCc1ccccc1 [Example 6, N-benzyl-2-[4-(4-oxo-3,4-dihydrophthalazin-1-yl)phenyl]acetamide]
6 | – | 0.1 to 100 | O=C(Cc1ccc(-c2n[nH]c(=O)c3ccccc23)cc1)Nc1ccncc1 [Example 7, 2-[4-(4-oxo-3,4-dihydrophthalazin-1-yl)phenyl]-N-(pyridin-4-yl)acetamide]
7 | – | 1000 to 50000 | CN(Cc1ccccc1)C(=O)Cc1ccc(-c2n[nH]c(=O)c3ccccc23)cc1 [Example 8, N-benzyl-N-methyl-2-[4-(4-oxo-3,4-dihydrophthalazin-1-yl)phenyl]acetamide]
8 | 1000 to 50000 | 0.1 to 100 | O=C(Cc1ccc(-c2n[nH]c(=O)c3ccccc23)cc1)Nc1nc2ccccc2[nH]1 [Example 9, N-(1H-1,3-benzodiazol-2-yl)-2-[4-(4-oxo-3,4-dihydrophthalazin-1-yl)phenyl]acetamide]
9 | 101 to 1000 | 0.1 to 100 | O=C(Cc1ccc(-c2n[nH]c(=O)c3ccccc23)cc1)Nc1nc2ccccc2o1 [Example 10, N-(1,3-benzoxazol-2-yl)-2-[4-(4-oxo-3,4-dihydrophthalazin-1-yl)phenyl]acetamide]
10 | 1000 to 50000 | 101 to 1000 | O=C(Cc1ccc(-c2n[nH]c(=O)c3ccccc23)cc1)N1CCC(c2ccccc2)CC1 [Example 11, 4-{4-[2-oxo-2-(4-phenylpiperidin-1-yl)ethyl]phenyl}-1,2-dihydrophthalazin-1-one]
11 | 1000 to 50000 | 1000 to 50000 | COC[C@@H]1CCCN1C(=O)Cc1ccc(-c2n[nH]c(=O)c3ccccc23)cc1 [Example 13, 4-(4-{2-[(2S)-2-(methoxymethyl)pyrrolidin-1-yl]-2-oxoethyl}phenyl)-1,2-dihydrophthalazin-1-one]
12 | 1000 to 50000 | 1000 to 50000 | O=C(Cc1ccc(-c2n[nH]c(=O)c3ccccc23)cc1)NCC1CC1 [Example 14, N-(cyclopropylmethyl)-2-[4-(4-oxo-3,4-dihydrophthalazin-1-yl)phenyl]acetamide]
13 | 1000 to 50000 | 1000 to 50000 | O=C(Cc1ccc(-c2n[nH]c(=O)c3ccccc23)cc1)N1CCN(c2ncccn2)CC1 [Example 15, 4-(4-{2-oxo-2-[4-(pyrimidin-2-yl)piperazin-1-yl]ethyl}phenyl)-1,2-dihydrophthalazin-1-one]
14 | 1000 to 50000 | 1000 to 50000 | COc1ccc(N2CCN(C(=O)Cc3ccc(-c4n[nH]c(=O)c5ccccc45)cc3)CC2)cc1 [Example 16, 4-(4-{2-[4-(4-methoxyphenyl)piperazin-1-yl]-2-oxoethyl}phenyl)-1,2-dihydrophthalazin-1-one]
15 | 1000 to 50000 | 0.1 to 100 | O=C(Cc1ccc(-c2n[nH]c(=O)c3ccccc23)cc1)N1CCC(Cc2ccccc2)CC1 [Example 17, 4-{4-[2-(4-benzylpiperidin-1-yl)-2-oxoethyl]phenyl}-1,2-dihydrophthalazin-1-one]
16 | 1000 to 50000 | 1000 to 50000 | O=C(Cc1ccc(-c2n[nH]c(=O)c3ccccc23)cc1)NC1CCC1 [Example 19, N-cyclobutyl-2-[4-(4-oxo-3,4-dihydrophthalazin-1-yl)phenyl]acetamide]
17 | 1000 to 50000 | – | CC1(C)OB(c2ccc(CC(=O)N3Cc4ccccc4C3)c(F)c2)OC1(C)C [Example 36, 2-(2-Fluoro-4-(4,4,5,5-tetramethyl-1,3,2-dioxaborolan-2-yl)phenyl)-1-(isoindolin-2-yl)ethanone]

Row | IC50 [1] [nM] | IC50 [2] [nM] | Compound
18 | – | 0.1 to 100 | O=C(Nc1ccc(-c2n[nH]c(=O)c3ccccc23)cc1)c1csc(-c2ccncc2)n1 [Example 45, N-(4-(4-Oxo-3,4-dihydrophthalazin-1-yl)phenyl)-2-(pyridin-4-yl)thiazole-4-carboxamide]
19 | – | 0.1 to 100 | O=C(Nc1ccc(-c2n[nH]c(=O)c3ccccc23)cc1)c1csc(-c2cc(F)cc(F)c2)n1 [Example 49, 2-(3,5-difluorophenyl)-N-[4-(4-oxo-3,4-dihydrophthalazin-1-yl)phenyl]-1,3-thiazole-4-carboxamide]
20 | 101 to 1000 | – | O=c1[nH]nc(-c2ccc(Nc3nc4ccccc4s3)cc2)c2ccccc12 [Example 84]
21 | 101 to 1000 | – | Cc1ccc2oc(Nc3ccc(-c4n[nH]c(=O)c5ccccc45)cc3)nc2c1 [Example 86, 4-{4-[(5-Methyl-1,3-benzoxazol-2-yl)amino]phenyl}-1,2-dihydrophthalazin-1-one]
22 | 101 to 1000 | – | O=c1[nH]nc(-c2ccc(Nc3nnc(-c4ccccc4)s3)cc2)c2ccccc12 [Example 87, 4-(4-((5-Phenyl-1,3,4-thiadiazol-2-yl)amino)phenyl)phthalazin-1(2H)-one]
23 | 101 to 1000 | – | O=C(Nc1ccc(-c2n[nH]c(=O)c3ccccc23)cc1)c1cn2ccnc(Cl)c2n1 [Example 124, 8-chloro-N-[4-(4-oxo-3,4-dihydrophthalazin-1-yl)phenyl]imidazo[1,2-a]pyrazine-2-carboxamide]
24 | 101 to 1000 | – | O=C(Nc1ccc(-c2n[nH]c(=O)c3ccccc23)cc1)c1cnn2ccc(OCCO)cc12 [Example 186, 5-(2-hydroxyethoxy)-N-[4-(4-oxo-3,4-dihydrophthalazin-1-yl)phenyl]pyrazolo[1,5-a]pyridine-3-carboxamide]
25 | 101 to 1000 | – | O=C(Nc1ccc(-c2c[nH]c(=O)c3ccccc23)cc1)c1ccc(N2CCOCC2)cc1 [Example 250, 4-Morpholino-N-(4-(1-oxo-1,2-dihydroisoquinolin-4-yl)phenyl)benzamide]
26 | 101 to 1000 | – | O=C(Cc1ccc(-c2c[nH]c(=O)c3ccccc23)c(F)c1)N1Cc2ccccc2C1 [Example 256, 4-(2-Fluoro-4-(2-(isoindolin-2-yl)-2-oxoethyl)phenyl)isoquinolin-1(2H)-one]
27 | 0.1 to 100 | – | O=C(Nc1ccc(-c2n[nH]c(=O)c3ccccc23)cc1)c1cnn(CC2CC2)c1 [Example 375, 1-(Cyclopropylmethyl)-N-(4-(4-oxo-3,4-dihydrophthalazin-1-yl)phenyl)-1H-pyrazole-4-carboxamide, TFA]
28 | 101 to 1000 | – | O=C(Nc1ccc(-c2n[nH]c(=O)c3ccccc23)cc1)c1cnn(CC(F)(F)F)c1 [Example 376, N-(4-(4-Oxo-3,4-dihydrophthalazin-1-yl)phenyl)-1-(2,2,2-trifluoroethyl)-1H-pyrazole-4-carboxamide, TFA]
29 | 101 to 1000 | – | O=C(Nc1ccc(-c2n[nH]c(=O)c3ccccc23)cc1)c1cnn(CC(F)(F)C(F)F)c1 [Example 383, N-(4-(4-Oxo-3,4-dihydrophthalazin-1-yl)phenyl)-1-(2,2,3,3-tetrafluoropropyl)-1H-pyrazole-4-carboxamide, TFA]
30 | 0.1 to 100 | – | O=C(Nc1ccc(-c2n[nH]c(=O)c3ccccc23)cc1)c1cnn(C2CCC2)c1 [Example 385, TFA]
31 | 1000 to 50000 | – | CC(O)Cn1cc(C(=O)Nc2ccc(-c3n[nH]c(=O)c4ccccc34)cc2)cn1 (stereo not shown) [Example 387, 1-(2-Hydroxypropyl)-N-(4-(4-oxo-3,4-dihydrophthalazin-1-yl)phenyl)-1H-pyrazole-4-carboxamide]
32 | 101 to 1000 | – | O=C(Nc1ccc(-c2n[nH]c(=O)c3ccccc23)cc1)c1cn[nH]c1 [Example 391, N-(4-(4-Oxo-3,4-dihydrophthalazin-1-yl)phenyl)-1H-pyrazole-4-carboxamide, TFA]
33 | 101 to 1000 | – | O=C(Nc1ccc(-c2n[nH]c(=O)c3ccccc23)cc1)c1cnn(C2CCS(=O)(=O)C2)c1 (stereo not shown) [Example 396, 1-(1,1-Dioxidotetrahydrothiophen-3-yl)-N-(4-(4-oxo-3,4-dihydrophthalazin-1-yl)phenyl)-1H-pyrazole-4-carboxamide, TFA]

Row | Compound | IC50 [1] [nM] | IC50 [2] [nM]
34 | O=C(Cc1ccc(-c2n[nH]c(=O)c3ccccc23)cc1)N1Cc2ccccc2C1 [Example 1, 4-(4-(2-(Isoindolin-2-yl)-2-oxoethyl)phenyl)phthalazin-1(2H)-one] | – | 0.1 to 100
35 | COc1ccc2c(c1)CN(C(=O)Cc1ccc(-c3n[nH]c(=O)c4ccccc34)cc1)C2 [Example 3, 4-(4-(2-(5-Methoxyisoindolin-2-yl)-2-oxoethyl)phenyl)phthalazin-1(2H)-one] | 101 to 1000 | 0.1 to 100
36 | O=C(Cc1ccc(-c2n[nH]c(=O)c3ccccc23)cc1)N1CCN(Cc2ccccc2)CC1 [Example 12, 4-{4-[2-(4-benzylpiperazin-1-yl)-2-oxoethyl]phenyl}-1,2-dihydrophthalazin-1-one] | 1000 to 50000 | 1000 to 50000
37 | O=C(Oc1ccc(-c2n[nH]c(=O)c3ccccc23)cc1)N1Cc2ccccc2C1 [Example 68, 4-(4-Oxo-3,4-dihydrophthalazin-1-yl)phenyl isoindoline-2-carboxylate] | – | 0.1 to 100
38 | CC(C)(O)Cn1nc(C(=O)Nc2ccc(-c3n[nH]c(=O)c4ccccc34)cc2F)c2ccccc21 [Example 358, N-(2-Fluoro-4-(4-oxo-3,4-dihydrophthalazin-1-yl)phenyl)-1-(2-hydroxy-2-methylpropyl)-1H-indazole-3-carboxamide] | 101 to 1000 | –
39 | O=C(Nc1ccc(-c2n[nH]c(=O)c3ccccc23)c(CO)c1)c1nn(CCC2CCOCC2)c2ccccc12 [Example 361, N-(3-(Hydroxymethyl)-4-(4-oxo-3,4-dihydrophthalazin-1-yl)phenyl)-1-(2-(tetrahydro-2H-pyran-4-yl)ethyl)-1H-indazole-3-carboxamide] | 101 to 1000 | –
